Measurements taken from patent US8455507B2, “Aminopyrimidines useful as kinase inhibitors” (Vertex Pharmaceuticals Incorporated, priority 2007, dated 2013).

What was measured:
Colo205 cells = assay: Analysis of Cell Proliferation and Viability; format: cell-based; details: Homo sapiens, COLO 205, 72 hours, lower bound 100 nM, upper bound 1 uM nM [sic], read-out: IC50 values after 72 hours
Protocol: Compounds were screened for their ability to inhibit cell proliferation and their effects on cell viability using Colo205 cells obtained from ECACC and using the assay shown below.
Colo205 cells were seeded in 96 well plates and serially diluted compound was added to the wells in duplicate. Control groups included untreated cells, the compound diluent (0.1% DMSO alone) and culture medium without cells. The cells were then incubated for 72 or 96 hrs at 37 C in an atmosphere of 5% CO2/95% humidity.
To measure proliferation, 3 h prior to the end of the experiment 0.5 μCi of 3H thymidine was added to each well. Cells were then harvested and the incorporated radioactivity counted on a Wallac microplate beta-counter. Cell viability was assessed using Promega CellTiter 96AQ to measure MTS conversion. Dose response curves were calculated using either Prism 3.0 (GraphPad) or SoftMax Pro 4.3.1 LS (Molecular Devices) software.

Aurora-1 (Aurora B) = Aurora-1 (Aurora B) (Homo sapiens, UniProt Q96GD4); assay: Aurora-1 (Aurora B) Inhibition Assay (Radiometric); format: biochemical; details: 800 μM ATP, 25° C., read-out: inhibit Aurora A, Ki (printed under the Aurora-1 (Aurora B) assay)
Sequence of Aurora-1 (Aurora B) (Q96GD4 whole entry): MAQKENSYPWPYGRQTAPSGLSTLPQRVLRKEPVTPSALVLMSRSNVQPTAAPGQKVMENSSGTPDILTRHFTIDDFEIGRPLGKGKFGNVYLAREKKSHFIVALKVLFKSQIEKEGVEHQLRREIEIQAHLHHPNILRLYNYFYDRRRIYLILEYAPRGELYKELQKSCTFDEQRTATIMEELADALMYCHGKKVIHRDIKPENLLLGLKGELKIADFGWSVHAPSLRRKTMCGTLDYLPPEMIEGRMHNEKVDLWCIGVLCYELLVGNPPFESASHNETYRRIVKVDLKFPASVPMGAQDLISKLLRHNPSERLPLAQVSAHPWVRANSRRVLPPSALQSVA
Protocol: An assay buffer solution was prepared which consisted of 25 mM HEPES (pH 7.5), 10 mM MgCl2, 0.1% BSA and 10% glycerol. A 22 nM Aurora-B solution, also containing 1.7 mM DTT and 1.5 mM Kemptide (LRRASLG), was prepared in assay buffer. To 22 μL of the Aurora-B solution, in a 96-well plate, was added 2 μl of a compound stock solution in DMSO and the mixture allowed to equilibrate for 10 minutes at 25° C. The enzyme reaction was initiated by the addition of 16 μl stock [γ-^33P]-ATP solution (˜20 nCi/μL) prepared in assay buffer, to a final assay concentration of 800 μM. The reaction was stopped after 3 hours by the addition of 16 μL 500 mM phosphoric acid and the levels of ^33P incorporation into the peptide substrate were determined by the following method.
A phosphocellulose 96-well plate (Millipore, Cat no. MAPHNOB50) was pre-treated with 100 μL of a 100 mM phosphoric acid prior to the addition of the enzyme reaction mixture (40 μL). […] Levels of non-enzyme catalyzed background radioactivity were determined by adding 16 μL of the 500 mM phosphoric acid to control wells, containing all assay components (which acts to denature the enzyme), prior to the addition of the [γ-^33P]-ATP solution. Levels of enzyme catalyzed ^33P incorporation were calculated by subtracting mean background counts from those measured at each inhibitor concentration. […]

Aurora-2 (Aurora A) = target: T1, Aurora-2 (Aurora A) (Homo sapiens, UniProt O14965); assay: Aurora-2 (Aurora A) Inhibition Assay (coupled enzyme assay); format: biochemical; details: 400 μM ATP, 40 nM Aurora-2, 30° C.; read-out: inhibit Aurora A, Ki
T1 sequence (O14965 1-403): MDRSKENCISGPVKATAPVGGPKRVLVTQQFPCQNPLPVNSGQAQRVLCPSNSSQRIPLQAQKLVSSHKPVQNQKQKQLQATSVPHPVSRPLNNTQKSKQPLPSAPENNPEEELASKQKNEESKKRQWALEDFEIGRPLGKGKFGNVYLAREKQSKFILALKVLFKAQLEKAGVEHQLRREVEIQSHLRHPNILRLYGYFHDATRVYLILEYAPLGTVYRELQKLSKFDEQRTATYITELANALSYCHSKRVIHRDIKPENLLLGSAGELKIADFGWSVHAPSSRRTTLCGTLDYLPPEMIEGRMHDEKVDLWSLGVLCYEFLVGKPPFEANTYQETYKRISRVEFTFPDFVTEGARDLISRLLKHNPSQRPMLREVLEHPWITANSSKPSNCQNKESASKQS
Protocol: Compounds were screened for their ability to inhibit Aurora-2 using a standard coupled enzyme assay (Fox et al., Protein Sci., (1998) 7, 2249). Assays were carried out in a mixture of 100 mM Hepes (pH7.5), 10 mM MgCl2, 1 mM DTT, 25 mM NaCl, 2.5 mM phosphoenolpyruvate, 300 μM NADH, 30 μg/ml pyruvate kinase and 10 μg/ml lactate dehydrogenase. Final substrate concentrations in the assay were 400 μM ATP (Sigma Chemicals) and 570 μM peptide (Kemptide, American Peptide, Sunnyvale, Calif.). Assays were carried out at 30° C. and in the presence of 40 nM Aurora-2.
An assay stock buffer solution was prepared containing all of the reagents listed above, with the exception of Aurora-2 and the test compound of interest. 55 μl of the stock solution was placed in a 96 well plate followed by addition of 2 μl of DMSO stock containing serial dilutions of the test compound (typically starting from a final concentration of 7.5 μM). The plate was preincubated for 10 minutes at 30° C. and the reaction initiated by addition of 10 μl of Aurora-2. Initial reaction rates were determined with a Molecular Devices SpectraMax Plus plate reader over a 10 minute time course. IC50 and Ki data were calculated from non-linear regression analysis using the Prism software package (GraphPad Prism version 3.0cx for Macintosh, GraphPad Software, San Diego Calif., USA).

[1] = target: N-terminally truncated (Δ27) Abl kinase (Homo sapiens, UniProt P00519); assay: Abl Kinase Activity Inhibition Assay (coupled enzyme system); format: biochemical; details: 110 μM ATP, 21 nM Abl kinase, 30° C.; read-out: inhibit Abl kinase, Ki value
Sequence of N-terminally truncated (Δ27) Abl kinase (P00519 whole entry, stated change not applied, the tested form may be a part): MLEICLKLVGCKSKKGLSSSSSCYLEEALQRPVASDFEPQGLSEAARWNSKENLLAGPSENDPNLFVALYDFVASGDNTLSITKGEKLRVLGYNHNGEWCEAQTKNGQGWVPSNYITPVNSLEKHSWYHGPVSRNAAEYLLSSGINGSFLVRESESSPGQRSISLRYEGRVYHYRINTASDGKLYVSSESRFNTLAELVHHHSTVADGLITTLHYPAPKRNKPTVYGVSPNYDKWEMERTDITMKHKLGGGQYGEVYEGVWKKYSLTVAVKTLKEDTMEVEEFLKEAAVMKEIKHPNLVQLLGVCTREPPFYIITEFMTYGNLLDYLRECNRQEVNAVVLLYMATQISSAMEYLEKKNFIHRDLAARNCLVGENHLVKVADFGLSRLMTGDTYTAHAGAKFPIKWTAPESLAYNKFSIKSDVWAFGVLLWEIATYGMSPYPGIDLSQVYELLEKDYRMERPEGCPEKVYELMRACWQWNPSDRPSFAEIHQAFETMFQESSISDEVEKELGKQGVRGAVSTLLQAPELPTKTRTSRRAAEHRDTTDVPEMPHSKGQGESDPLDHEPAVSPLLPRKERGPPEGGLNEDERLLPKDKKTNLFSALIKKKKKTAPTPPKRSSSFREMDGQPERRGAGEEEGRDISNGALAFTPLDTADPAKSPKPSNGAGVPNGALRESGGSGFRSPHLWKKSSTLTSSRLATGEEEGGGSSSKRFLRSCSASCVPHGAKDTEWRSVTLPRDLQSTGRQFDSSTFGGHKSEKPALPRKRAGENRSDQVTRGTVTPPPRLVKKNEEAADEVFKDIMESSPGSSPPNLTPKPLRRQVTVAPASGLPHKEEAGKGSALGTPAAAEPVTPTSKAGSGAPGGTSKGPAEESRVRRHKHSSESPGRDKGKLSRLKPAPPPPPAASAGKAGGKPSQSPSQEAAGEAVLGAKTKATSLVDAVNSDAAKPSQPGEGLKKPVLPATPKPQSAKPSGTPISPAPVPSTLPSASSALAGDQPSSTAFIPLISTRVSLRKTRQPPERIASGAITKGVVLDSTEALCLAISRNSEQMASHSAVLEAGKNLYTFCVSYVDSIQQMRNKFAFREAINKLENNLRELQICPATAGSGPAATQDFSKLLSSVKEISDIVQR
Protocol: Compounds were screened for their ability to inhibit N-terminally truncated (Δ27) Abl kinase activity using a standard coupled enzyme system (Fox et al., Protein Sci., 7, pp. 2249 (1998)). Reactions were carried out in a solution containing 100 mM HEPES (pH 7.5), 10 mM MgCl2, 25 mM NaCl, 300 μM NADH, 1 mM DTT and 3% DMSO. Final substrate concentrations in the assay were 110 μM ATP (Sigma Chemicals, St Louis, Mo.) and 70 μM peptide (EAIYAAPFAKKK, American Peptide, Sunnyvale, Calif.). Reactions were carried out at 30° C. and 21 nM Abl kinase. Final concentrations of the components of the coupled enzyme system were 2.5 mM phosphoenolpyruvate, 200 μM NADH, 60 μg/ml pyruvate kinase and 20 μg/ml lactate dehydrogenase.
An assay stock buffer solution was prepared containing all of the reagents listed above with the exception of ATP and the test compound of interest. The assay stock buffer solution (60 μl) was incubated in a 96 well plate with 2 μl of the test compound of interest at final concentrations typically spanning 0.002 μM to 30 μM at 30° C. for 10 min. […] Rates of reaction were obtained using a Molecular Devices Spectramax plate reader (Sunnyvale, Calif.) over 10 min at 30° C. The Ki values were determined from the residual rate data as a function of inhibitor concentration using nonlinear regression (Prism 3.0, Graphpad Software, San Diego, Calif.).

`Cc1cc(Nc2cc(N3CCN(C(C)(C)CF)CC3)nc(Sc3cc(F)c4nc(C)ccc4c3)n2)[nH]n1` [Compound I-6] showed an IC50 (Colo205 cells) of 100 to 1000 nM.

`Cc1cc(Nc2cc(N3CCN(C(C)(C)CF)CC3)nc(Sc3ccc4nc(C(F)(F)F)cn4c3)n2)[nH]n1` [Compound I-11] gave an IC50 (Colo205 cells) of 100 to 1000 nM.

For `Cc1cc(Nc2cc(N3CCN(C4CCN(C)CC4)CC3)nc(Sc3cc(F)c4nc(C)ccc4c3)n2)[nH]n1` [Compound I-13, 2-(8-fluoro-2-methylquinolin-6-ylthio)-N-(3-methyl-1H-pyrazol-5-yl)-6-(4-(1-methylpiperidin-4-yl)piperazin-1-yl)pyrimidin-4-amine], the Ki (Aurora-1 (Aurora B)) was 10 to 20 nM, the Ki (Aurora-2 (Aurora A)) was 1 to 2 nM and the Ki [1] was less than 25 nM.

`Cc1cc(Nc2cc(N3CCN(C4CC4)CC3)nc(Sc3ccc4nc(C(F)(F)F)cn4c3)n2)[nH]n1` [Compound I-14] showed an IC50 (Colo205 cells) of 100 to 1000 nM.

`Cc1cc(Nc2cc(N3CCN(C4CC4)CC3)nc(Sc3cc(F)c4nc(C)ccc4c3)n2)[nH]n1` [Compound I-15] showed an IC50 (Colo205 cells) of 100 to 1000 nM.

Work on `Cc1cc(Nc2cc(N3CCN(C(C)(C)CF)CC3)nc(Sc3ccc4nc(C(F)(F)F)n(C)c4c3)n2)[nH]n1` [Compound I-21] yielded an IC50 (Colo205 cells) of 100 to 1000 nM.

`Cc1cc(Nc2cc(N3CCN(CC(F)(F)F)CC3)nc(Sc3ccc4nc(C(F)(F)F)cn4c3)n2)[nH]n1` [Compound I-22] showed an IC50 (Colo205 cells) of 100 to 1000 nM.

In the case of `Cc1cc(Nc2cc(N3CCN(CC(F)(F)F)CC3)nc(Sc3cc(F)c4nc(C)ccc4c3)n2)[nH]n1` [Compound I-23], the IC50 (Colo205 cells) is reported as 100 to 1000 nM.
